Earlier results as cited in PMC4198065 (ACS Chemical Neuroscience, 2014).

Experiments:
[1] = test system: food intake in mice; conditions: effect lasting up to 24 h
[2] = test system: food consumption and body weight in rats; conditions: ICV

AGRP: endogenous antagonist of the MC3R and MC4R (SSRRCVRLHESCLGQQVPCCDPCATCYCRFFNAFCYCRKLGTAMNPCSRT; UniProt O00253 83-132, looked up)
food intake after central administration [1]: robustly increased food intake

Ac-Nle-c[Asp-His-DPhe-Arg-Trp-Lys]-NH2 (sidechain bridge or staple) [MTII]
48 h food consumption ([2]; 1.0 nmol dose): reduced 48 h food consumption | body weight post treatment ([2]; at 24 and 48 h (0.1 and 1.0 nmol doses, respectively)): reduced body weight at 24 and 48 h

Ac-RRWWRF-NH2 [AST789-13, Ac-RRWWRF-NH2]
half-life in human serum: 1.5 h
